Source: US10117864B2, “Substituted N-bicyclo-2-aryl-quinolin-4-carboxamides and use thereof” (BAYER PHARMA AKTIENGESELLSCHAFT, priority 2015, dated 2018)

Target: human FP receptor (Homo sapiens (Human), UniProt P43088)
Assay: In vitro test of inhibition of human FP receptor activity (PGF2α-induced calcium flux in FP-expressing CHEM1 cells)
Format: cell-based
Details: PGF2α-induced (3 nM) calcium flux, some as mean values from multiple independent determinations
Source text: • CRTH2 chemoattractant receptor-homologous molecule expressed on T helper type 2 cells • DMEM Dulbecco's modified Eagle's medium • DMSO dimethyl sulfoxide • DP PGD2 receptor • EC50 half-maximum effective concentration • Em emission • EP PGE2 receptor • Ex excitation • from Company (source) • FCS fetal calf serum • FP PGF2α receptor • HEPES 2-[4-(2-hydroxyethyl)piperazin-1-yl]ethanesulfonic acid • IC50 half-maximum inhibitory concentration • IP PGI2 receptor • MES 2-(N-morpholino)ethanesulfonic acid • Pen/Strep penicillin/streptomycin • PGD2 prostaglandin D2 • PGE2 prostaglandin E2 • PGF2α prostaglandin F2α • PGI2 prostaglandin I2 • TC tissue culture • TP thromboxane A2 receptor • Tris tris(hydroxymethyl)aminomethane • v/v volume to volume ratio (of a solution) • w/w weight to weight ratio (of a solution) B-1. In Vitro Test of Inhibition of Human FP Receptor Activity
For the characterization of test substances in respect of FP antagonism, PGF2α-induced calcium flux in FP-expressing CHEM1 cells (Millipore, HTS093C) was used.
Prior to the measurement, the medium is replaced by 30 μl of Fluo-8 AM loading buffer [calcium-free Tyrode (130 mM NaCl, 5 mM KCl, 20 mM HEPES, 1 mM MgCl2, 4.8 mM NaHCO3, pH 7.4), 2 mM CaCl2, 1× SmartBlock (from CANDOR Bioscience GmbH), 4.5 mM Probenecid, 5 μM Fluo-8 AM, 0.016% Pluronic®, 0.04% Brilliant black] and incubated at 37° C./5% CO2 for 30 minutes. […] 10 μl of the prediluted substance solution are added to the Fluo-8-laden cells and incubated at 37° C./5% CO2 for 10 minutes. The FP receptor is activated by adding 20 μl of 3 nM (final concentration) PGF2α in calcium-free Tyrode/2 mM CaCl2/0.04% Brilliant black, and the calcium flux is determined by measuring the fluorescence at ex. 470 nm/[…].
Table 1 below lists the IC50 values from this assay for individual working examples of the invention (some as mean values from multiple independent individual determinations): […]

human FP receptor, sequence (P43088 whole entry): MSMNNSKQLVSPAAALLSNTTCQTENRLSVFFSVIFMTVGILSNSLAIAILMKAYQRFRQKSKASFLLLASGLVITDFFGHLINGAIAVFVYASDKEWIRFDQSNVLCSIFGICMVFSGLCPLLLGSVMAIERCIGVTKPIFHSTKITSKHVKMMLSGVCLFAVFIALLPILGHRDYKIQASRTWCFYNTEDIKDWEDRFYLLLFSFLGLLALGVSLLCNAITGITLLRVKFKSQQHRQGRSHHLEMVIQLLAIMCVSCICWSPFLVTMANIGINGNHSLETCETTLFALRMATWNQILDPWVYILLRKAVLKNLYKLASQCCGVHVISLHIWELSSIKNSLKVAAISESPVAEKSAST

Row | IC50 [nM] | SMILES
1 | 435 | Cc1c(-c2ccccc2)nc2ccc(Br)cc2c1C(=O)NC12CCC(C(=O)O)(CC1)C(O)C2 (racemic) [Example 59, 4-{[(6-Bromo-3-methyl-2-phenylquinolin-4-yl)carbonyl]amino}-2-hydroxybicyclo[2.2.2]octane-1-carboxylic acid (racemate)]
2 | 259 | Cc1c(-c2ccccc2)nc2ccc(Cl)cc2c1C(=O)NC12CCC(C(=O)O)(CC1)CC2 [Example 2, 4-{[(6-Chloro-3-methyl-2-phenylquinolin-4-yl)carbonyl]amino}bicyclo[2.2.2]octane-1-carboxylic acid]
3 | 142 | Cc1c(-c2ccccc2)nc2cc(Cl)c(Cl)cc2c1C(=O)NC12CCC(C(=O)O)(CC1)CC2 [Example 3, 4-{[(6,7-Dichloro-3-methyl-2-phenylquinolin-4-yl)carbonyl]amino}bicyclo[2.2.2]octane-1-carboxylic acid]
4 | 113 | Cc1c(-c2cccs2)nc2ccc(Br)cc2c1C(=O)NC12CCC(C(=O)O)(CC1)CC2 [Example 5, 4-({[6-Bromo-3-methyl-2-(2-thienyl)quinolin-4-yl]carbonyl}amino)bicyclo[2.2.2]octane-1-carboxylic acid]
5 | 240 | Cc1c(-c2ccccc2F)nc2ccc(Br)cc2c1C(=O)NC12CCC(C(=O)O)(CC1)CC2 [Example 6, 4-({[6-Bromo-2-(2-fluorophenyl)-3-methylquinolin-4-yl]carbonyl}amino)bicyclo[2.2.2]octane-1-carboxylic acid]
6 | 181 | Cc1c(-c2cccc(F)c2)nc2ccc(Br)cc2c1C(=O)NC12CCC(C(=O)O)(CC1)CC2 [Example 7, 4-({[6-Bromo-2-(3-fluorophenyl)-3-methylquinolin-4-yl]carbonyl}amino)bicyclo[2.2.2]octane-1-carboxylic acid]
7 | 180 | Cc1c(-c2ccc(F)cc2)nc2ccc(Br)cc2c1C(=O)NC12CCC(C(=O)O)(CC1)CC2 [Example 8, 4-({[6-Bromo-2-(4-fluorophenyl)-3-methylquinolin-4-yl]carbonyl}amino)bicyclo[2.2.2]octane-1-carboxylic acid]
8 | 386 | Cc1c(-c2cc(F)cc(F)c2)nc2ccc(Br)cc2c1C(=O)NC12CCC(C(=O)O)(CC1)CC2 [Example 9, 4-({[6-Bromo-2-(3,5-difluorophenyl)-3-methylquinolin-4-yl]carbonyl}amino)bicyclo[2.2.2]octane-1-carboxylic acid]
9 | 128 | Cc1c(-c2ccccc2Cl)nc2ccc(Br)cc2c1C(=O)NC12CCC(C(=O)O)(CC1)CC2 [Example 10, 4-({[6-Bromo-2-(2-chlorophenyl)-3-methylquinolin-4-yl]carbonyl}amino)bicyclo[2.2.2]octane-1-carboxylic acid]
10 | 129 | Cc1c(-c2cccc(Cl)c2)nc2ccc(Br)cc2c1C(=O)NC12CCC(C(=O)O)(CC1)CC2 [Example 11, 4-({[6-Bromo-2-(3-chlorophenyl)-3-methylquinolin-4-yl]carbonyl}amino)bicyclo[2.2.2]octane-1-carboxylic acid]
11 | 139 | O=C(NC12CCC(C(=O)O)(CC1)CC2)c1c(F)c(-c2ccccc2)nc2ccc(Br)cc12 [Example 12, 4-{[(6-Bromo-3-fluoro-2-phenylquinolin-4-yl)carbonyl]amino}bicyclo[2.2.2]octane-1-carboxylic acid]
12 | 153 | COc1c(-c2ccccc2)nc2ccc(Br)cc2c1C(=O)NC12CCC(C(=O)O)(CC1)CC2 [Example 13, 4-{[(6-Bromo-3-methoxy-2-phenylquinolin-4-yl)carbonyl]amino}bicyclo [2.2.2]octane-1-carboxylic acid]
13 | 33 | Cc1c(-c2ccccc2)nc2ccc(I)cc2c1C(=O)NC12CCC(C(=O)O)(CC1)CC2 [Example 14, 4-{[(6-Iodo-3-methyl-2-phenylquinolin-4-yl)carbonyl]amino}bicyclo[2.2.2]octane-1-carboxylic acid]
14 | 326 | Cc1c(-c2ccccc2)nc2ccc(C3CC3)cc2c1C(=O)NC12CCC(C(=O)O)(CC1)CC2 [Example 15, 4-{[(6-Cyclopropyl-3-methyl-2-phenylquinolin-4-yl)carbonyl]amino}bicyclo[2.2.2]octane-1-carboxylic acid]
15 | 589 | Cc1c(-c2ccccc2)nc2ccc(C3CCC3)cc2c1C(=O)NC12CCC(C(=O)O)(CC1)CC2 [Example 16, 4-{[(6-Cyclobutyl-3-methyl-2-phenylquinolin-4-yl)carbonyl]amino}bicyclo [2.2.2]octane-1-carboxylic acid]
16 | 543 | Cc1c(-c2ccccc2)nc2ccc(C(F)F)cc2c1C(=O)NC12CCC(C(=O)O)(CC1)CC2 [Example 18, 4-({[6-(Difluoromethyl)-3-methyl-2-phenylquinolin-4-yl]carbonyl}amino)bicyclo[2.2.2]octane-1-carboxylic acid]
17 | 917 | Cc1c(-c2ccccc2)nc2ccc(OC(F)(F)F)cc2c1C(=O)NC12CCC(C(=O)O)(CC1)CC2 [Example 19, 4-({[3-Methyl-2-phenyl-6-(trifluoromethoxy)quinolin-4-yl]carbonyl}amino)bicyclo[2.2.2]octane-1-carboxylic acid]
18 | 521 | Cc1c(-c2ccccc2)nc2ccc(SC(F)(F)F)cc2c1C(=O)NC12CCC(C(=O)O)(CC1)CC2 [Example 20, 4-[({3-Methyl-2-phenyl-6-[(trifluoromethyl)sulfanyl]quinolin-4-yl}carbonyl)amino]bicyclo[2.2.2]octane-1-carboxylic acid]
19 | 214 | Cc1c(-c2ccccc2)nc2c(C)cc(Br)cc2c1C(=O)NC12CCC(C(=O)O)(CC1)CC2 [Example 21, 4-{[(6-Bromo-3,8-dimethyl-2-phenylquinolin-4-yl)carbonyl]amino}bicyclo[2.2.2]octane-1-carboxylic acid]
20 | 677 | Cc1c(-c2ccccc2)nc2c(Cl)cc(Cl)cc2c1C(=O)NC12CCC(C(=O)O)(CC1)CC2 [Example 22, 4-{[(6,8-Dichloro-3-methyl-2-phenylquinolin-4-yl)carbonyl]amino}bicyclo[2.2.2]octane-1-carboxylic acid]
21 | 306 | Cc1cc2nc(-c3ccccc3)c(C)c(C(=O)NC34CCC(C(=O)O)(CC3)CC4)c2cc1C [Example 23]
22 | 129 | Cc1ccccc1-c1nc2ccc(Br)cc2c(C(=O)NC23CCC(C(=O)O)(CC2)CC3)c1C [Example 24, 4-({[6-Bromo-3-methyl-2-(2-methylphenyl)quinolin-4-yl]carbonyl}amino)bicyclo[2.2.2]octane-1-carboxylic acid]
23 | 494 | Cc1c(-c2c(F)cccc2F)nc2ccc(Br)cc2c1C(=O)NC12CCC(C(=O)O)(CC1)CC2 [Example 25, 4-({[6-Bromo-2-(2,6-difluorophenyl)-3-methylquinolin-4-yl]carbonyl}amino)bicyclo[2.2.2]octane-1-carboxylic acid]
24 | 114 | COc1cccc(-c2nc3ccc(Br)cc3c(C(=O)NC34CCC(C(=O)O)(CC3)CC4)c2C)c1 [Example 26, 4-({[6-Bromo-2-(3-methoxyphenyl)-3-methylquinolin-4-yl]carbonyl}amino)bicyclo[2.2.2]octane-1-carboxylic acid]
25 | 74 | CSc1c(-c2ccccc2)nc2ccc(Br)cc2c1C(=O)NC12CCC(C(=O)O)(CC1)CC2 [Example 27, 4-({[6-Bromo-3-(methylsulfanyl)-2-phenylquinolin-4-yl]carbonyl}amino)bicyclo[2.2.2]octane-1-carboxylic acid]
26 | 220 | CCc1c(-c2ccccc2)nc2ccc(Br)cc2c1C(=O)NC12CCC(C(=O)O)(CC1)CC2 [Example 28, 4-{[(6-Bromo-3-ethyl-2-phenylquinolin-4-yl)carbonyl]amino}bicyclo[2.2.2]octane-1-carboxylic acid]
27 | 51 | O=C(NC12CCC(C(=O)O)(CC1)CC2)c1c(C2CC2)c(-c2ccccc2)nc2ccc(Br)cc12 [Example 29, 4-{[(6-Bromo-3-cyclopropyl-2-phenylquinolin-4-yl)carbonyl]amino}bicyclo[2.2.2]octane-1-carboxylic acid]
28 | 52 | O=C(NC12CCC(C(=O)O)(CC1)CC2)c1c(Cl)c(-c2ccccc2)nc2ccc(Br)cc12 [Example 30, 4-{[(6-Bromo-3-chloro-2-phenylquinolin-4-yl)carbonyl]amino}bicyclo[2.2.2]octane-1-carboxylic acid]
29 | 351 | CCCc1c(-c2ccccc2)nc2ccc(Br)cc2c1C(=O)NC12CCC(C(=O)O)(CC1)CC2 [Example 31, 4-{[(6-Bromo-2-phenyl-3-propylquinolin-4-yl)carbonyl]amino}bicyclo[2.2.2]octane-1-carboxylic acid]

Row | SMILES | IC50 [nM]
30 | Cc1c(-c2ccccc2)nc2ccc([Si](C)(C)C)cc2c1C(=O)NC12CCC(C(=O)O)(CC1)CC2 [Example 17, 4-({[3-Methyl-2-phenyl-6-(trimethylsilyl)quinolin-4-yl]carbonyl}amino)bicyclo[2.2.2]octane-1-carboxylic acid] | 214
